Measured values published in US11883526B2 (priority 2019, dated 2024).

Columns and labels:
[1] = tested on: subjects with TRD; conditions: human, in vivo, other: intranasal
Experimental: FIGS. 53 and 54 present means for blood pressure over time by treatment group in the maintenance phase.
Transient blood pressure increases peaked for the esketamine group at approximately 40 minutes post dose and returned closer to predose levels by 1.5 hours post dose.

[2] = tested on: subjects with MDD at imminent risk for suicide; experiment: MADRS total score, sustained response ([…]2001); assay type: in vivo, human; conditions: 84 mg; for MADRS total score change from baseline, Diff. of LS Means (minus Placebo): ANCOVA LOCF
From the text: Primary efficacy variable/Primary Time point: Change from baseline (Day 1, predose) to Day 1, 4-hours postdose in MADRS total score. The MADRS consists of 10 items that cover all of the core depressive symptoms, with each item scoring from 0 (item is not present or is normal) to 6 (severe or continuous presence of the symptom). A higher score represents a more severe condition.
The primary efficacy endpoint is the change in MADRS total score from baseline to Day 1: 4-hours postdose. MADRS total scores range from 0 to 60. […] As this is a phase 2a proof-of-concept study, statistical significance is based on a two-sided alpha level of 0.20. All p-values presented in this document are two-sided.
Sustained response is defined as at least 50% reduction from baseline in MADRS total score with onset on Day 1: 4 hours postdose that is maintained through the end of the double-blind phase (Day 25). Four subjects in the esketamine 84 mg group and 2 subjects in the placebo group had sustained response throughout the double-blind phase.

[3] = tested on: patients with treatment-resistant depression (TRD); experiment: Vital signs: blood pressure and heart rate (Example 7); assay type: in vivo, human
Experimental: Adverse events were monitored throughout the study. Other safety assessments (i.e., laboratory tests, vital signs, physical examination) were performed at pre-specified time points. Vital signs, the Clinician Administered Dissociative States Scale (CADSS; Bremner, “Measurement of dissociative states with the clinician-administered dissociative states scale (CADSS)”, J. Traumatic Stress, 1998, 11(1):125-136), and the 4-item positive symptom subscale from the Brief Psychiatric Rating Scale (BPRS; Overall, “The Brief Psychiatric Rating Scale. Psychological Reports”, 1962, 10:799-812) were assessed pre-dose, at 40 minutes, and 2 hours post-dose.

[4] = single dose study, 72 mg intranasal
Experimental: This study includes a single dose and 14-day repeated dose neurotoxicity studies with intranasally administered esketamine in female rats 12 to 14 weeks of age. These studies were conducted to investigate whether single or repeated intranasal administrations of esketamine induced neurodegenerative changes in the rat brain. The study results were used to estimate an esketamine exposure-based safety margin compared with the maximum dose of esketamine administered intranasally to depressed adult patients in clinical trials.
The vehicle- and the 36 and 54 mg-dosed groups consisted of 24 animals per group, while the 72 mg-dosed and positive control groups involved 30 animals per group. Four satellite animals were added to the esketamine HCl-dosed groups of main study animals for toxicokinetic (TK) purposes. In these animals the plasma exposure to esketamine was measured on the day of dosing at various time points up to and including 24 hours after the first instillation.

[5] = tested on: subjects with TRD; conditions: human, in vivo, other: intranasal; remark: listed apart in the source
Experimental: The Clinician Administered Dissociative States Scale (CADSS) was measured prior to the start of each dose, at 40 minutes, and 1.5 hours postdose.

[6] = tested on: patients with treatment-resistant depression (TRD); experiment: MADRS total score, response, remission (phase 2 dose-response study, Example 7); assay type: in vivo, human; conditions: for MADRS total score, LS mean difference vs placebo (all dose groups): 28, 56, 84 mg; for Remitters, % / Responders, %: study period endpoint
Experimental: Efficacy was assessed with the Montgomery-Asberg Depression Rating Scale (MADRS; Montgomery, “A new depression scale designed to be sensitive to change”, Br. J. Psychiatry, 1979, 134:382-389; Williams, “Development and reliability of a structured interview guide for the Montgomery Asberg Depression Rating Scale (SIGMA)”, Br. J. Psychiatry, 2008, 192(1):52-58) on days 1 (pre-dose and 2 hour post-dose), 2, 8 (pre-dose), 9, and 15, using the structured interview guide (SIGMA). See, Williams 2008.
Efficacy data were analyzed in intent-to-treat (ITT) analysis sets for each period and phase. The ITT analysis sets included all participants who received at least 1 dose of study medication during that period or phase and had baseline and at least one post-baseline MADRS total score within that period or phase.
The primary efficacy endpoint—change from baseline (pre-dose, day 1 in each period) to endpoint (day 8 in each period) in MADRS total score—was analyzed using the analysis of covariance (ANCOVA) model. For Period 1, the model included treatment and country as factors, and baseline MADRS total score as covariate. For Period 2, the model included treatment and country as factors, Period 2 baseline QIDS-SR16 score (moderate or severe), and Period 2 baseline MADRS total score as a continuous covariate.
Given the consistency between Periods 1 and 2 results (Chi 2016), esketamine dose groups were compared to placebo using a combined test on the weighted test statistics for each period in the double-blind treatment phase. A dose-response analysis on primary efficacy endpoint was performed using data combined from both periods. The Multiple Comparison Procedure-Modelling (MCP-Mod) methodology was performed (Williams 2008; Bretz, “Combining multiple comparisons and modeling techniques in dose-response studies”, Biometrics, 2005, 61:738-748).

[7] = tested on: glutamate NMDA receptor; conditions: in vitro; cited from earlier work
[8] = tested on: subjects with MDD at imminent risk for suicide; assay type: in vivo, human; conditions: 84 mg
Experimental: Transient blood pressure increases peaked for the esketamine group at approximately 40 minutes post dose with the maximum mean increases (across all dosing days) in systolic BP being 8.7 in the placebo group and 16.7 in the esketamine 84 mg group. The maximum mean increases (across all dosing days) in diastolic BP were 7.6 in the placebo group and 11.9 in the esketamine 84 mg group. […] See, FIGS. 46 and 47.

[9] = tested on: subjects with MDD at imminent risk for suicide; conditions: 84 mg
Experimental: The CADSS was measured prior to the start of each dose, at 40 minutes, 2 hours, and 4 hours postdose.

## CN[C@]1(c2ccccc2Cl)CCCCC1=O [esketamine, (S)-2-(2-chlorophenyl)-2-(methylamino)cyclohexanone]
[1]
  blood pressure returned closer to predose levels by: ≤ 1.5 hours post dose
  time of peak of transient blood pressure increase post dose: approximately 40 minutes
[2]; ≥50% MADRS reduction from Day 1 4 h through Day 25
  subjects with sustained response throughout the double-blind phase: Four
[2]; Day 1(DB): 4 H, ITT
  MADRS total score change from baseline, Diff. of LS Means (minus Placebo): −5.3
[2]; Day 2(DB), ITT
  MADRS total score change from baseline, Diff. of LS Means (minus Placebo): −7.2
[2]; End Point(DB), ITT
  MADRS total score change from baseline, Diff. of LS Means (minus Placebo): −4.5
[2]; ITT
  Day 25 sustained response (MADRS) No: no. of subjects: 30
[2]; all randomized analysis set
  Withdrawn from double-blind phase: Lack of Efficacy, percent of subjects: (2.8%)
[2]; all randomized analysis set, N = 36
  Withdrawn from double-blind phase: Lack of Efficacy, number of subjects: 1
[2]; at least 50 percent reduction from Day 1 through Day 25, ITT
  Day 25 sustained response (MADRS) Yes: no. of subjects: 4
[3]; 10 or 40 minutes post-dose
  maximum diastolic blood pressure value: 115 mmHg
  maximum systolic blood pressure value: 199 mmHg
[3]; dosing days
  maximum mean change in diastolic blood pressure: 10.3 mmHg
  maximum mean change in heart rate: 9.4 bpm
  maximum mean change in systolic blood pressure: 19.0 mmHg
[3]; in vivo
  elevated blood pressure returned to the normal range by: ≤ 2 hours post-dose
[4]
  AUC-based safety margin compared with the maximum 84 mg clinical dose: ~86 fold
  Cmax-based safety margin compared with the maximum 84 mg clinical dose: approximately 60 fold
[5]
  dissociative and perceptual change symptoms (CADSS) resolved by: ≤ 1.5 hours post dose
[6]; 84 mg, Period 2 endpoint
  proportion of responders (≥50% improvement in MADRS): 50.0%
[6]; Period 1, baseline to day 8
  MADRS total score, LS mean difference vs placebo (all dose groups): −5.0 to −10.5
[6]; Period 1, 84 mg
  Remitters, %: (25.0) %
  Responders, %: (41.7) %
[6]; Period 2, day 8 to day 15
  MADRS total score, LS mean difference vs placebo (all dose groups): −3.1 to −6.9
[6]; Period 2, change at study period endpoint, 56 mg
  MADRS total score, LS mean change: −8.9
[6]; Period 2, 28 mg
  Remitters, %: (12.5) %
  Responders, %: (12.5) %
[6]; Period 2, 84 mg
  Remitters, %: (20.0) %
[7]
  affinity for the glutamate NMDA receptor relative to R-ketamine: 3 to 4 fold
[8]
  blood pressure returning to normal range by: ≤ 2 hours post dose
[8]; across all dosing days
  maximum mean increase in diastolic BP: 11.9
  maximum mean increase in systolic BP: 16.7
[9]
  dissociative and perceptual change symptoms (CADSS) resolved by: ≤ 2 hours post dose
